# Measurements from patent US20180272034A1, “USE OF CSA COMPOUNDS TO PREVENT MICROBIAL BUILD-UP OR FOULING OF MEDICAL IMPLANTS” (BRIGHAM YOUNG UNIVERSITY, priority 2017, published 2018).
# How the values were obtained:
# Non-fermenters = assay: Broth microdilution MIC, HABP/VABP clinical isolates; type: cell-based, A. baumannii species complex, P. aeruginosa, S. maltophilia; conditions: Non-fermenters (22)
# Experimental: CSA-131 was tested in vitro against a set of clinical isolates representing bacterial species commonly associated with hospital-acquired bacterial pneumonia (HABP) or ventilator-associated bacterial pneumonia (VABP). Antimicrobial susceptibility testing for 74 clinical isolates was performed. Broth microdilution using frozen-form MIC panels consisted of three media types: cation-adjusted Mueller-Hinton broth (CA-HMB), CA-HMB supplemented with 2.5-5% lysed horse blood for S. pneumoniae and Haemophilus test media (HTM) for Haemophilus spp.
# [1] = Duration of efficacy of silicone-based Foley catheter with CSA-131; conditions: hydrogel coating approximately 10 μm including CSA-131
# Excerpt: A silicone-based Foley catheter was coated with a hydrogel coating of approximately 10 μm in thickness. The coating included CSA-131. The coating was initially shown to maintain efficacy for about 6-7 days. A silicone-based Foley catheter was formed using silicone mixed with an NDSA salt form of CSA-131.
# [2] = system: Staphylococcus aureus MRSA; assay: Log10 reduction, coated PVC endotracheal tube segments and media; type: cell-based; conditions: CSA-131 polymer coating about 39.4 μg/cm^2 vs uncoated, 24 hours
# Experimental: (§1) Segments of polyvinyl chloride (PVC) endotracheal tubes measuring 3 cm in length were placed in wells of a 6 well plate. 7 ml of inoculum were placed in each well. Testing was repeated in triplicate for each test article. The samples were placed on a rotary shaker (110 revolutions per minute) and incubated at 37±2° C. for 24 hours. At the end of 24 hours the bacteria in the inoculum were characterized via serial dilution, plating, and counting. The endotracheal tube segment was also removed and neutralized. After neutralization, the adherent biofilm biomass was removed and characterized via serial dilution, plating, and counting.
# (§2) As the number of viable organisms recovered from the treated catheters is expected to be low, a membrane filtration method provides an appropriate analysis for counting recovered organisms. The remaining recovery solution was filtered through a 0.45 μm filter membrane. Filters were placed on TSA/SDA/NA/TSBA plates and incubated at 37±2° C. and counted after sufficient incubation.
# (§3) The log reduction is calculated by determining the Log10 difference between uncoated devices and associated media and coated devices (using a polymer coating including CSA-131 at about 39.4 μg/cm^2) and associated media. The log reduction is calculated as follows:
# (§4) Log reduction(Media)=Control Log10(CFU/ml)−Test Log10(CFU/ml)
# (§5) Log10(CFU/ml)=Log10(CFU/ml+1)
# (§6) Log reduction(Device)=Control Log10(CFU/device)−Test Log10(CFU/device)
# (§7) Log10(CFU/device)=Log10(CFU/device+1)
# Klebsiella pneumonia = assay: as above; type: cell-based; conditions: CSA-131 polymer coating about 39.4 μg/cm^2 vs uncoated, 24 hours
# Experimental: as §1, §2, §3, §4, §5, §6, §7
# Candida auris isolates = assay: Antifungal MIC, CLSI M27-A3; type: cell-based
# Experimental: The antifungal effectiveness of CSA-131 was tested against 100 Candida auris isolates. The C. auris isolates were from all over the world and covered known C. auris clades. The selection included isolated known to have elevated MIC values against fluconazole, the echinocandins, and/or amphotericin B.
# Testing was performed according to the standards of the Clinical and Laboratory Standards Institute reference methodology M27-A3 (as of 2017). CSA-131 was dissolved in DMSO and diluted as described in M27-A3 to give a final DMSO concentration of <1%. Dilution plates were stored at −70° C. until used and were used within one week of being produced. All results were read visually after 24 hours of incubation at the lowest drug concentration at which there was a 50% decrease in growth by visual inspection. Quality control isolates C. parapsilosis ATCC 22019 and C. krusei ATCC 6258 were included on each day of testing although there are no standard QC values for these isolates against this compound. The MIC values for ATCC 22019 and ATCC 6258 remained within a tight range of 1-2 dilutions over the course of the study.
# Staphylococcus aureus = conditions: mixed-species biofilms grown 22 hours, 20 hours of treatment
# Experimental: (§8) Several CSA compounds were tested against Pseudomonas aeruginosa and Staphylococcus aureus mixed-species biofilms grown for an initial 22 hours and subjected to 20 hours of treatment.
# Pseudomonas aeruginosa = conditions: mixed-species biofilms grown 22 hours, 20 hours of treatment
# Experimental: as §8
# [3] = 100 C. auris isolates, 50% decrease in growth, 24 hours
# [4] = fluconazole Resistant isolates, 69
# [5] = fluconazole Susceptible isolates, 30
# [6] = isolates with elevated echinocandin MICs, 7
compound,measurement,setting,value
CCCCCCCCCCCCNCCC[C@@H](C)[C@H]1CC[C@H]2[C@@H]3[C@H](OCCCN)C[C@@H]4C[C@H](OCCCN)CC[C@]4(C)[C@H]3C[C@H](OCCCN)[C@]12C.Cl.Cl.Cl.Cl [CSA-131],MIC50,Non-fermenters,4 µg/mL
same,MIC90,Non-fermenters,4 µg/mL
same,No. of isolates at MIC 2 μg/ml,Non-fermenters,9
same,No. of isolates at MIC 4 μg/ml,Non-fermenters,12
same,No. of isolates at MIC 8 μg/ml,Non-fermenters,1
same,cumulative % inhibited at 2 μg/ml,Non-fermenters,40.9%
same,cumulative % inhibited at 4 μg/ml,Non-fermenters,95.5%
same,cumulative % inhibited at 8 μg/ml,Non-fermenters,100%
same,time coating maintains efficacy,[1],6 to 7 days
same,Log10 Reduction Device,[2]; 399 (clinical),6.24
same,Log10 Reduction Media,[2]; 399 (clinical),8.89
same,Log10 Reduction Total,[2]; 399 (clinical),8.23
same,Log10 Reduction Device,[2]; 456 (clinical),6.77
same,Log10 Reduction Media,[2]; 456 (clinical),9.63
same,Log10 Reduction Total,[2]; 456 (clinical),9.63
same,Log10 Reduction Device,[2]; U of C #18 (clinical),5.92
same,Log10 Reduction Media,[2]; U of C #18 (clinical),9.36
same,Log10 Reduction Total,[2]; U of C #18 (clinical),8.44
same,Log10 Reduction Device,Klebsiella pneumonia; 06-0140-M4505,5.21
same,Log10 Reduction Media,Klebsiella pneumonia; 06-0140-M4505,9.49
same,Log10 Reduction Total,Klebsiella pneumonia; 06-0140-M4505,7.85
same,Log10 Reduction Device,Klebsiella pneumonia; 4352 (clinical),4.91
same,Log10 Reduction Media,Klebsiella pneumonia; 4352 (clinical),6.56
same,Log10 Reduction Total,Klebsiella pneumonia; 4352 (clinical),7.70
same,Log10 Reduction Device,Klebsiella pneumonia; ATCC 29011,3.80
same,Log10 Reduction Media,Klebsiella pneumonia; ATCC 29011,6.76
same,Log10 Reduction Total,Klebsiella pneumonia; ATCC 29011,6.82
same,No. of Isolates at MIC 0.016,Candida auris isolates; 100 C. auris isolates,0
same,No. of Isolates at MIC 0.03,Candida auris isolates; 100 C. auris isolates,0
same,No. of Isolates at MIC 0.0625,Candida auris isolates; 100 C. auris isolates,0
same,No. of Isolates at MIC 0.125,Candida auris isolates; 100 C. auris isolates,0
same,No. of Isolates at MIC 0.25,Candida auris isolates; 100 C. auris isolates,0
same,No. of Isolates at MIC 0.5,Candida auris isolates; 100 C. auris isolates,39
same,No. of Isolates at MIC 1,Candida auris isolates; 100 C. auris isolates,61
same,No. of Isolates at MIC 2,Candida auris isolates; 100 C. auris isolates,0
same,No. of Isolates at MIC <0.016,Candida auris isolates; 100 C. auris isolates,0
same,No. of Isolates at MIC >2,Candida auris isolates; 100 C. auris isolates,0
same,MIC50,Candida auris isolates; [3],1 µg/mL
same,MIC90,Candida auris isolates; [3],1 µg/mL
same,MIC Mode,Candida auris isolates; [3],1 µg/mL
same,MIC Range,"Candida auris isolates; 100 C. auris isolates, 50% decrease in growth, 24 hours, in µg/mL",0.5-1
same,activity against C. auris collection,"Candida auris isolates; 100 isolates, 4 clades",showed activity against all C. auris
same,MIC50,"Candida auris isolates; Clade 1, 47 isolates",1 µg/mL
same,MIC90,"Candida auris isolates; Clade 1, 47 isolates",1 µg/mL
same,MIC Mode,"Candida auris isolates; Clade 1, 47 isolates",1 µg/mL
same,MIC Range,"Candida auris isolates; Clade 1, 47 isolates",0.5 to 1 µg/mL
same,MIC50,"Candida auris isolates; Clade 2, 11 isolates",1 µg/mL
same,MIC90,"Candida auris isolates; Clade 2, 11 isolates",1 µg/mL
same,MIC Mode,"Candida auris isolates; Clade 2, 11 isolates",1 µg/mL
same,MIC Range,"Candida auris isolates; Clade 2, 11 isolates",0.5 to 1 µg/mL
same,MIC50,"Candida auris isolates; Clade 3, 39 isolates",1 µg/mL
same,MIC90,"Candida auris isolates; Clade 3, 39 isolates",1 µg/mL
same,MIC Mode,"Candida auris isolates; Clade 3, 39 isolates",1 µg/mL
same,MIC Range,"Candida auris isolates; Clade 3, 39 isolates",0.5 to 1 µg/mL
same,MIC50,"Candida auris isolates; Clade 4, 3 isolates",0.5 µg/mL
same,MIC90,"Candida auris isolates; Clade 4, 3 isolates",1 µg/mL
same,MIC Mode,"Candida auris isolates; Clade 4, 3 isolates",0.5 µg/mL
same,MIC Range,"Candida auris isolates; Clade 4, 3 isolates",0.5 to 1 µg/mL
same,MIC50,Candida auris isolates; [4],1 µg/mL
same,MIC90,Candida auris isolates; [4],1 µg/mL
same,MIC Mode,Candida auris isolates; [4],1 µg/mL
same,MIC Range,Candida auris isolates; [4],0.5 to 1 µg/mL
same,MIC50,Candida auris isolates; [5],0.5 µg/mL
same,MIC90,Candida auris isolates; [5],1 µg/mL
same,MIC Range,Candida auris isolates; [5],0.5 to 1 µg/mL
same,MIC50,Candida auris isolates; [6],1 µg/mL
same,MIC90,Candida auris isolates; [6],1 µg/mL
same,MIC Mode,Candida auris isolates; [6],1 µg/mL
same,MIC Range,"Candida auris isolates; isolates with elevated echinocandin MICs, 7, in µg/mL",0.5-1
same,MBC S. aureus,Staphylococcus aureus,1.56 µg/mL
same,MIC S. aureus,Staphylococcus aureus,0.78 µg/mL
same,MBC P. aeruginosa,Pseudomonas aeruginosa,3.125 µg/mL
same,MIC P. aeruginosa,Pseudomonas aeruginosa,3.125 µg/mL
